Drawing on PMC6501643, “Crystal structure of human RIOK2 bound to a specific inhibitor” (Open Biology, 2019), this text covers Kd for one compound.

This assay has as its target T1, RIO kinase 2 (RIOK2) (Homo sapiens, UniProt Q9BVS4).
T1 construct: residues 1–329
Description: co-crystal structure ([…] Å) and ITC. The format is binding.

pKd: −log10 of the molar value.

T1 sequence (Q9BVS4 1-329): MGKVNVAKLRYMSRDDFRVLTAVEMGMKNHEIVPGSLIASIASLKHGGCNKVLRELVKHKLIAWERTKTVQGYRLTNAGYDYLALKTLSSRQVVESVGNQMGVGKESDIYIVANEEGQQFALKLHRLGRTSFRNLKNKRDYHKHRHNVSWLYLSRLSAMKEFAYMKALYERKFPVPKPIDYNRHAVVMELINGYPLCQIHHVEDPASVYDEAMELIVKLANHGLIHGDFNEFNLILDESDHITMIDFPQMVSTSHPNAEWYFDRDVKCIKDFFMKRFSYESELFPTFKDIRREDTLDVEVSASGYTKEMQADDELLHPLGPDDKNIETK

With `O=C(Cc1ccc2ccccc2c1)Nc1ccccn1` [compound 9], the pKd is 6.41.

One may read the pKd as the Kd on a negative log10 scale, so that one unit is a factor of ten. High values mean a low Kd, low ones a high Kd.
